The values that follow come from US20080096939A1, “Process For Preparation Of Pramipexole By Chiral Chromatography” (priority 2004, published 2008).

In data set [1] the target is dopamine D-2 (Homo sapiens, UniProt P14416). The settings on record: compared with the R(+) enantiomer; cited from earlier work.
For data set [2] the following is noted: acetonitrile:methanol (81:19). The text has this:
Racemic pramipexole was subjected to preparative chromatography using Chiralpak® AD as the stationary phase and acetonitrile:methanol (81:19) as the mobile phase.

dopamine D-2, sequence (P14416 whole entry): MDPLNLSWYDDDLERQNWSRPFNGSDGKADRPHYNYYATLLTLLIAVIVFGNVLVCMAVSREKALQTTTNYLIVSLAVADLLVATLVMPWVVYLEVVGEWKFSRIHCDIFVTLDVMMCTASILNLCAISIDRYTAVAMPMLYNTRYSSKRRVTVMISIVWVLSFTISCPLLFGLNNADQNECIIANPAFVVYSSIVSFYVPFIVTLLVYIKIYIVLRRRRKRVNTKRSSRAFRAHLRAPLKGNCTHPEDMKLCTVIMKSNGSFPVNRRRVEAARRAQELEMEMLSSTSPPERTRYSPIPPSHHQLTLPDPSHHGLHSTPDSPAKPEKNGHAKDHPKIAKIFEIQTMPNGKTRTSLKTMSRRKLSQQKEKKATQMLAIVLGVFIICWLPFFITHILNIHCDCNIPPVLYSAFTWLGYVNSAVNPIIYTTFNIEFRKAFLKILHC

Regarding `CCCN[C@H]1CCc2nc(N)sc2C1` [Pramipexole, S(−)-2-amino-6-propylamino-4,5,6,7-tetrahydrobenzothiazole], in data set [1], the “dopaminergic activity of the S(−) enantiomer relative to the corresponding R(+) enantiomer” value is “twice as high”.

As to `CCCNC1CCc2nc(N)sc2C1` (racemic) [Racemic pramipexole, R,S(±)-2-amino-6-propylamino-4,5,6,7-tetrahydrobenzothiazole], the “solubility in the mobile phase” value in data set [2] is over 40 mg/mL.
